The values below come from patent US20130142831A1, “COMPOUNDS FOR INFLAMMATION AND IMMUNE-RELATED USES” (Synta Pharmaceuticals Corp., priority 2004, published 2013).

The structures appear in SMILES notation.

The assay relates to IL-2 production. The assay is described as follows: Inhibition of IL-2 production in PHA-activated Jurkat cells. The settings on record: Homo sapiens, PHA 2.5 μg/mL, 20 hours. It counts as cell-based. As for the experimental part:
Jurkat cells were placed in a 96 well plate (0.5 million cells per well in 1% FBS medium) then test compounds of this invention were added at different concentrations. After 10 minutes, the cells were activated with PHA (final concentration 2.5 μg/mL) and incubated for 20 hours at 37° C. under CO2. The final volume was 200 μL. Following incubation, the cells were centrifuged and the supernatants collected and stored at −70° C. prior to assaying for IL-2 production. A commercial kit (IL-2 Eli-pair, Diaclone Research, Besancon, France) was used to detect production of IL-2, from which dose response curves were obtained. The IC50 value was calculated as the concentration at which. 50% of maximum IL-2 production after stimulation was inhibited versus a non-stimulation control.

Usually IC50 stands for the concentration needed to halve the response being measured. Higher therefore signals weaker potency. Where the note is “bins given in nM”, `CCCCC(CC)C(=O)Nc1ccc(-n2c(C(F)(F)F)nc3cc(OC)ccc32)cc1` (centres unmarked) [Compound 87, 2-Ethyl-N-[4-(2-trifluoromethyl-5-methoxy-benzoimidazol-1-yl)-phenyl]-hexanoic acid amide] displayed an IC50 of 100 to 500 nM.
Compound `CCCCCCC(=O)Nc1ccc(-n2c(C(F)(F)F)nc3cc(OC)ccc32)cc1` [Compound 88, N-[4-(2-trifluoromethyl-5-methoxy-benzoimidazol-1-yl)-phenyl]-heptanoic acid amide] had an IC50 (bins given in nM) of 100 to 500 nM.
For the compound `COc1cccc(C(=O)Nc2ccc(-n3c(C(F)(F)F)nc4cc(OC)ccc43)cc2)c1` [Compound 89, 3-Methoxy-N-[4-(2-trifluoromethyl-5-methoxy-benzoimidazol-1-yl)-phenyl]-benzamide], the IC50 (bins given in nM) was 100 to 500 nM.
In the case of `COc1ccc2c(c1)nc(C(F)(F)F)n2-c1ccc(NC(=O)C2CC2c2ccccc2)cc1` (centres unmarked) [Compound 90, 2-Phenyl-N-[4-(2-trifluoromethyl-5-methoxy-benzoimidazol-1-yl)-phenyl]-cyclopropanecarboxylic acid amide], the IC50 (bins given in nM) is 100 to 500 nM.
Compound `COC(=O)c1ccc2c(c1)nc(C(F)(F)F)n2-c1ccc(NC(=O)c2cccc(F)c2F)cc1` [Compound 96, 2-Trifluoromethyl-1-[4-(2,3-difluoro-benzoylamimo)-phenyl]-1H-benzoimidazole-5-carboxylic acid methyl ester] returned a half-inhibitory concentration (IC50) (bins given in nM) of less than 100 nM.
Take `COc1ccc2c(c1)nc(C(F)(F)F)n2-c1ccc(NC(=O)c2c(F)c(F)c(F)c(F)c2F)cc1` [Compound 97, 2,3,4,5,6-Pentafluoro-N-[4-(2-trifluoromethyl-5-methoxy-benzoimidazol-1-yl)-phenyl]-benzamide]: the IC50 (bins given in nM) was less than 100 nM.
The same measure, in the same setting: then `COc1ccc2c(c1)nc(C(F)(F)F)n2-c1ccc(NC(=O)c2ccc(F)cc2F)cc1` [Compound 98, 2,4-Difluoro-N-[4-(2-trifluoromethyl-5-methoxy-benzoimidazol-1-yl)-phenyl]-benzamide], with less than 100 nM.
The same measure, in the same setting: the value for `O=C(Nc1ccc(-n2c(C(F)(F)F)nc3cc(O)ccc32)cc1)c1cccc(F)c1F` [Compound 99, 2,3-Difluoro-N-[4-(2-trifluoromethyl-5-hydroxy-benzoimidazol-1-yl)-phenyl]-benzamide] was less than 100 nM; that for `COc1ccc2c(c1)nc(C(F)(F)F)n2-c1ccc(NC(=O)c2cc(F)ccc2F)cc1` [Compound 100, 2,5-Difluoro-N-[4-(2-trifluoromethyl-5-methoxy-benzoimidazol-1-yl)-phenyl]-benzamide] was less than 100 nM.
In the case of `COc1ccc2c(c1)nc(C(F)(F)F)n2-c1ccc(NC(=O)c2cccc(C#N)c2)cc1` [Compound 101, 3-Cyano-N-[4-(2-trifluoromethyl-5-methoxy-benzoimidazol-1-yl)-phenyl]-benzamide], the half-inhibitory concentration (IC50) (bins given in nM) was less than 100 nM.
With `COc1ccc2c(c1)nc(C(F)(F)F)n2-c1ccc(NC(=O)c2c(Cl)cccc2Cl)cc1` [Compound 102, 2,6-Dichloro-N-[4-(2-trifluoromethyl-5-methoxy-benzoimidazol-1-yl)-phenyl]-benzamide], for the setting “bins given in nM”, the concentration for half-maximal inhibition (IC50) was less than 100 nM.
Same read-out and setting: the value for `COc1ccc2c(c1)nc(C(F)(F)F)n2-c1ccc(NC(=O)c2ccccc2Br)cc1` [Compound 104, 2-Bromo-N-[4-(2-trifluoromethyl-5-methoxy-benzoimidazol-1-yl)-phenyl]-benzamide] was less than 100 nM.
In turn, `COc1ccc2c(c1)nc(C(F)(F)F)n2-c1ccc(NC(=O)C2CCCC2)cc1` [Compound 105, N-[4-(2-trifluoromethyl-5-methoxy-benzoimidazol-1-yl)-phenyl]-cyclopentanecarboxylic acid amide] returned an IC50 (bins given in nM) of less than 100 nM.
Where the note is “bins given in nM”, `COc1ccc2c(c1)nc(C(F)(F)F)n2-c1ccc(NC(=O)C2CCCCC2)cc1` [Compound 106, N-[4-(2-trifluoromethyl-5-methoxy-benzoimidazol-1-yl)-phenyl]-cyclohexanecarboxylic acid amide] had an IC50 of less than 100 nM.
As for `COc1ccc2c(c1)nc(C(F)(F)F)n2-c1ccc(NC(=O)c2ccccc2[N+](=O)[O-])cc1` [Compound 107, 2-Nitro-N-[4-(2-trifluoromethyl-5-methoxy-benzoimidazol-1-yl)-phenyl]-benzamide], under “bins given in nM”, the IC50 is less than 100 nM.
Compound `COc1ccc2c(c1)nc(C(F)(F)F)n2-c1ccc(NC(=O)c2ccc(Cl)cc2)cc1` [Compound 108, 4-Chloro-N-[4-(2-trifluoromethyl-5-methoxy-benzoimidazol-1-yl)-phenyl]-benzamide] gave an IC50 (bins given in nM) of less than 100 nM.
In the case of `COc1ccc2c(c1)nc(C(F)(F)F)n2-c1ccc(NC(=O)c2cccc(Cl)c2)cc1` [Compound 109, 3-Chloro-N-[4-(2-trifluoromethyl-5-methoxy-benzoimidazol-1-yl)-phenyl]-benzamide], the IC50 (bins given in nM) is less than 100 nM.
Regarding `COc1ccc2c(c1)nc(C(F)(F)F)n2-c1ccc(NC(=O)c2ccc(F)c(F)c2)cc1` [Compound 110, 3,4-Difluoro-N-[4-(2-trifluoromethyl-5-methoxy-benzoimidazol-1-yl)-phenyl]-benzamide], the IC50 (bins given in nM) is less than 100 nM.
With `COc1ccc2c(c1)nc(C(F)(F)F)n2-c1ccc(NC(=O)c2ccccc2)cc1` [Compound 111, N-[4-(2-trifluoromethyl-5-methoxy-benzoimidazol-1-yl)-phenyl]-benzamide], the IC50 (bins given in nM) was less than 100 nM.
The compound `CC(C)Oc1ccc2c(c1)nc(C(F)(F)F)n2-c1ccc(NC(=O)c2cccc(F)c2F)cc1` [Compound 112, 2,3-Difluoro-N-[4-(2-trifluoromethyl-5-isopropoxy-benzoimidazol-1-yl)-phenyl]-benzamide] showed an IC50 (bins given in nM) of less than 100 nM.
With `NC(=O)c1ccc2c(c1)nc(C(F)(F)F)n2-c1ccc(NC(=O)c2cccc(F)c2F)cc1` [Compound 113, 2,3-Difluoro-N-[4-(2-trifluoromethyl-5-carbamoyl-benzoimidazol-1-yl)-phenyl]-benzamide], under “bins given in nM”, the IC50 is less than 100 nM.
On the same count and under the same terms, the value for `COc1ccc2c(c1)nc(C(F)(F)F)n2-c1ccc(NC(=O)c2ccncc2)cc1` [Compound 114, N-[4-(2-trifluoromethyl-5-methoxy-benzoimidazol-1-yl)-phenyl]-isonicotinamide] was less than 100 nM.
Same read-out and setting: the value for `COc1ccc2c(c1)nc(C(F)(F)F)n2-c1ccc(NC(=O)c2ccccc2I)cc1` [Compound 115, 2-Iodo-N-[4-(2-trifluoromethyl-5-methoxy-benzoimidazol-1-yl)-phenyl]-benzamide] was less than 100 nM.
As for `COc1ccc2c(c1)nc(C(F)(F)F)n2-c1ccc(NC(=O)CC(C)C)cc1` [Compound 116, 3-Methyl-N-[4-(2-trifluoromethyl-5-methoxy-benzoimidazol-1-yl)-phenyl]-butyramide], under “bins given in nM”, the IC50 was less than 100 nM.
As for `COc1ccc2c(c1)nc(C(F)(F)F)n2-c1ccc(NC(=O)c2cc(Cl)cc(Cl)c2)cc1` [Compound 117, 3,5-Dichloro-N-[4-(2-trifluoromethyl-5-methoxy-benzoimidazol-1-yl)-phenyl]-benzamide], the IC50 (bins given in nM) is less than 100 nM.
On to `COc1ccc2c(c1)nc(C(F)(F)F)n2-c1ccc(NC(=O)c2cccc(Br)c2)cc1` [Compound 118, 3-Bromo-N-[4-(2-trifluoromethyl-5-methoxy-benzoimidazol-1-yl)-phenyl]-benzamide], for which the IC50 (bins given in nM) was less than 100 nM.
Consider `COc1ccc2c(c1)nc(C(F)(F)F)n2-c1ccc(NC(=O)c2ccc(Br)cc2)cc1` [Compound 119, 4-Bromo-N-[4-(2-trifluoromethyl-5-methoxy-benzoimidazol-1-yl)-phenyl]-benzamide], for which the IC50 (bins given in nM) was less than 100 nM.
Under “bins given with μM limit”, `COc1ccc2c(c1)nc(C(F)(F)F)n2-c1ccc(NC(=O)c2ccco2)cc1` [Compound 120, Furan-2-carboxylic acid {N-[4-(2-trifluoromethyl-5-methoxy-benzoimidazol-1-yl)-phenyl]}-amide] gave an IC50 greater than 1000 nM.
The same measure, in the same setting: the value for `COc1ccc2c(c1)nc(C(F)(F)F)n2-c1ccc(NC(=O)C2CCCN2C(=O)C(F)(F)F)cc1` (centres unmarked) [Compound 121, 1-(2,2,2-Trifluoroacetyl)-N-[4-(2-trifluoromethyl-5-methoxy-benzoimidazol-1-yl)-phenyl]-pyrrolidine-2-carboxylic acid amide] was greater than 1000 nM; that for `C=CC(=O)Nc1ccc(-n2c(C(F)(F)F)nc3cc(OC)ccc32)cc1` [Compound 122, N-[4-(2-trifluoromethyl-5-methoxy-benzoimidazol-1-yl)-phenyl]-acrylamide] was greater than 1000 nM; that for `COc1ccc2c(c1)nc(C(F)(F)F)n2-c1ccc(NC(=O)COCc2ccccc2)cc1` [Compound 123, 2-Benzyloxy-N-[4-(2-trifluoromethyl-5-methoxy-benzoimidazol-1-yl)-phenyl]-acetamide] was greater than 1000 nM.
Under “bins given with μM limit”, `COc1ccc2c(c1)nc(C(F)(F)F)n2-c1ccc(NC(=O)CSc2ccccc2)cc1` [Compound 124, 2-Phenylsulfanyl-N-[4-(2-trifluoromethyl-5-methoxy-benzoimidazol-1-yl)-phenyl]-acetamide] gave a 50% inhibitory concentration (IC50) greater than 1000 nM.
On the same count and under the same terms, the value for `CCOC(=O)CCC(=O)Nc1ccc(-n2c(C(F)(F)F)nc3cc(OC)ccc32)cc1` [Compound 125, N-[4-(2-trifluoromethyl-5-methoxy-benzoimidazol-1-yl)-phenyl]-succinamic acid ethyl ester] was greater than 1000 nM; that for `COc1ccc2c(c1)nc(C(F)(F)F)n2-c1ccc(NC(=O)c2ccccc2Cl)cc1` [Compound 126, 2-Chloro-N-[4-(2-trifluoromethyl-5-methoxy-benzoimidazol-1-yl)-phenyl]-benzamide] was greater than 1000 nM; that for `COc1ccc2c(c1)nc(C(F)(F)F)n2-c1ccc(NC(=O)c2cc(C(F)(F)F)ccc2C(F)(F)F)cc1` [Compound 127, 2,5-Di-(trifluoromethyl)-N-[4-(2-trifluoromethyl-5-methoxy-benzoimidazol-1-yl)-phenyl]-benzamide] was greater than 1000 nM.
